Data as given in patent US9593144B2, “FPR1 antagonist derivatives and use thereof” (CHANG GUNG UNIVERSITY, priority 2014, dated 2017).
Square brackets hold non-standard residues; d marks the D form. Peptide text beside a SMILES is read from it. * marks the point of attachment. Bz = O=C(c1ccccc1)*

Tests used:
[1] = test system: human neutrophils; assay: Cytotoxic test: lactate dehydrogenase (LDH) release from human neutrophils; type: cell-based
Procedure: FIGS. 1(a)-1(b) show the influences of HCH6-1 on releasing lactate dehydrogenase (LDH) from human neutrophils under the following experimental conditions. The suspension of neutrophils was reacted with different concentrations of candidate compounds for 15 min, or fixed concentrations of candidate compounds for various times. Also, 0.1% Triton X-100 was added to react for 30 min as a release amount of total lactate dehydrogenase (Total LDH), wherein the supernatant was subjected to centrifugation for 8 min, at 200 g and at 4° C., and then a lactate dehydrogenase reagent was added and kept in the dark and at room temperature for 30 min, and an absorbance at 492 nm was monitored. Results are measured based on Total LDH as 100%.

melting point: 174 to 176 °C
Compound: COC(=O)[C@@H](Cc1ccccc1)NC(=O)[C@H](Cc1c[nH]c2ccccc12)NC(=O)c1ccccc1 [Compound 3, N—(N-Benzoyl-L-tryptophanyl)-D-phenylalanine methyl ester] (Bz-Trp-[dF]-OMe)
toxicity to cells (LDH release) during a long period ([1]; HCH6-1 30 μM, 120 min, FIG. 1(b)): no significant toxicity
toxicity to neutrophils (LDH release) ([1]; different concentrations, 15 min, FIG. 1(a)): not the results of toxicity to the neutrophils
